Measured values from PubChem BioAssay (NCI).
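Cultured in 96-well plates, cells were exposed to test compound for 48 hours across five concentrations. GI50: concentration for 50% inhibition of growth. TGI: total growth inhibition.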

Legend:
Experiment in all cases: NCI tumour cell line growth inhibition, 48 h
NCI-H23 lung = system: NCI-H23 lung
NCI-H460 lung = system: NCI-H460 lung
NCI-H522 lung = system: NCI-H522 lung
NCI/ADR-RES ovarian = system: NCI/ADR-RES ovarian
OVCAR-3 ovarian = system: OVCAR-3 ovarian
OVCAR-4 ovarian = system: OVCAR-4 ovarian
OVCAR-5 ovarian = system: OVCAR-5 ovarian
OVCAR-8 ovarian = system: OVCAR-8 ovarian
PC-3 prostate = system: PC-3 prostate
RPMI-8226 leukemia = system: RPMI-8226 leukemia
RXF 393 renal = system: RXF 393 renal
SF-268 CNS = system: SF-268 CNS
SF-295 CNS = system: SF-295 CNS
SF-539 CNS = system: SF-539 CNS
SK-MEL-28 melanoma = system: SK-MEL-28 melanoma
SK-MEL-5 melanoma = system: SK-MEL-5 melanoma
SK-OV-3 ovarian = system: SK-OV-3 ovarian
SN12C renal = system: SN12C renal
SNB-19 CNS = system: SNB-19 CNS
SNB-75 CNS = system: SNB-75 CNS
SR leukemia = system: SR leukemia
SW-620 colon = system: SW-620 colon
T-47D breast = system: T-47D breast
TK-10 renal = system: TK-10 renal
U251 CNS = system: U251 CNS
UACC-257 melanoma = system: UACC-257 melanoma
UACC-62 melanoma = system: UACC-62 melanoma
UO-31 renal = system: UO-31 renal

Structure (SMILES): COc1cc(/C=C2\C(=O)Nc3ccccc32)cc(OC)c1O
- GI50 (NCI-H23 lung): 4.97 µM
- TGI (NCI-H23 lung): 34.2 µM
- GI50 (NCI-H460 lung): 3.12 µM
- TGI (NCI-H460 lung): 11.7 µM
- GI50 (NCI-H522 lung): 1.72 µM
- TGI (NCI-H522 lung): 5.1 µM
- GI50 (NCI/ADR-RES ovarian): 2.47 µM
- TGI (NCI/ADR-RES ovarian): 7.62 µM
- GI50 (OVCAR-3 ovarian): 1.98 µM
- TGI (OVCAR-3 ovarian): 5.05 µM
- GI50 (OVCAR-4 ovarian): 4.95 µM
- TGI (OVCAR-4 ovarian): 31.3 µM
- GI50 (OVCAR-5 ovarian): 4.71 µM
- TGI (OVCAR-5 ovarian): 18.8 µM
- GI50 (OVCAR-8 ovarian): 4.98 µM
- TGI (OVCAR-8 ovarian): 29.7 µM
- GI50 (PC-3 prostate): 21 µM
- TGI (PC-3 prostate): > 100 µM
- GI50 (RPMI-8226 leukemia): 5.47 µM
- TGI (RPMI-8226 leukemia): 27.5 µM
- GI50 (RXF 393 renal): 2.52 µM
- TGI (RXF 393 renal): 8.41 µM
- GI50 (SF-268 CNS): 4.24 µM
- TGI (SF-268 CNS): 29.1 µM
- GI50 (SF-295 CNS): 2.99 µM
- TGI (SF-295 CNS): 31.2 µM
- GI50 (SF-539 CNS): 2.5 µM
- TGI (SF-539 CNS): 13.3 µM
- GI50 (SK-MEL-28 melanoma): 5.06 µM
- TGI (SK-MEL-28 melanoma): 23 µM
- GI50 (SK-MEL-5 melanoma): 2.87 µM
- TGI (SK-MEL-5 melanoma): 10.8 µM
- GI50 (SK-OV-3 ovarian): 3.88 µM
- TGI (SK-OV-3 ovarian): 21.6 µM
- GI50 (SN12C renal): 3.61 µM
- TGI (SN12C renal): 23.3 µM
- GI50 (SNB-19 CNS): 4.45 µM
- TGI (SNB-19 CNS): 55.6 µM
- GI50 (SNB-75 CNS): 1.17 µM
- TGI (SNB-75 CNS): 8.44 µM
- GI50 (SR leukemia): 1.6 µM
- TGI (SR leukemia): 16.9 µM
- GI50 (SW-620 colon): 3.39 µM
- TGI (SW-620 colon): 13.1 µM
- GI50 (T-47D breast): 3.56 µM
- TGI (T-47D breast): 84.5 µM
- GI50 (TK-10 renal): 7.14 µM
- TGI (TK-10 renal): 37.1 µM
- GI50 (U251 CNS): 2.37 µM
- TGI (U251 CNS): 14 µM
- GI50 (UACC-257 melanoma): 1.81 µM
- TGI (UACC-257 melanoma): 18.7 µM
- GI50 (UACC-62 melanoma): 2.59 µM
- TGI (UACC-62 melanoma): 11.1 µM
- GI50 (UO-31 renal): 2.63 µM
- TGI (UO-31 renal): 19.9 µM
